In patent US20140120087A1, “TRIAZOLOPYRIDINES” (BAYER INTELLECTUAL PROPERTY GMBH, priority 2011, published 2014):

What was measured:
[1] = Hydrolytic stability assay at pH 2; format: physicochemical; settings: buffer pH 2, 37° C.
Experimental: The hydrolytic stability assay investigates the stability of a compound in an aqueous buffer system. Standard solution stability assay is run in 0.05 M Phosphate buffer at pH 7.4 (pH of blood plasma) at 37° C. As compounds in the GI tract are exposed to a wide variety of pHs any relevant pH (as pH 2 to simulate the acidic condition of the GI tract in the following experiment) can be chosen. Compounds are incubated in relevant solution at 37° C. and analyzed by HPLC immediately after incubation and after 1, 2 and 24 hrs. Degradation rate (decay in %) is calculated by relating peak areas after 1, 2 and 24 hrs to the time zero injection.
Compound is available as 10 mM in DMSO (solution 1). 2.5 μL of solution 1 is dissolved in 1 mL acetonitrile leading to solution 2. Poorly soluble compounds may demand another dilution step of solution 2 (1:5 and 1:10 respectively) in Acetonitrile). Solution 2 is incubated at 37° C. in a tempered HPLC autosampler. 1 mL buffer pH 2 is transferred into an HPLC vial. 100 μL of solution 2 is added to the buffer pH 2 solution and mixed thoroughly. Immediately after mixing the combined solution is injected into the HPLC to give the time zero injection. Injections are repeated after 1, 2 and 24 hrs.
The degradation rate (decay in %) is calculated using HPLC software Millennium and Excel respectively.

[2] = target: T1, Mps-1 kinase (Homo sapiens, UniProt P33981); test: Mps-1 kinase assay with 10 μM ATP (TR-FRET)
T1 sequence (P33981 1-857): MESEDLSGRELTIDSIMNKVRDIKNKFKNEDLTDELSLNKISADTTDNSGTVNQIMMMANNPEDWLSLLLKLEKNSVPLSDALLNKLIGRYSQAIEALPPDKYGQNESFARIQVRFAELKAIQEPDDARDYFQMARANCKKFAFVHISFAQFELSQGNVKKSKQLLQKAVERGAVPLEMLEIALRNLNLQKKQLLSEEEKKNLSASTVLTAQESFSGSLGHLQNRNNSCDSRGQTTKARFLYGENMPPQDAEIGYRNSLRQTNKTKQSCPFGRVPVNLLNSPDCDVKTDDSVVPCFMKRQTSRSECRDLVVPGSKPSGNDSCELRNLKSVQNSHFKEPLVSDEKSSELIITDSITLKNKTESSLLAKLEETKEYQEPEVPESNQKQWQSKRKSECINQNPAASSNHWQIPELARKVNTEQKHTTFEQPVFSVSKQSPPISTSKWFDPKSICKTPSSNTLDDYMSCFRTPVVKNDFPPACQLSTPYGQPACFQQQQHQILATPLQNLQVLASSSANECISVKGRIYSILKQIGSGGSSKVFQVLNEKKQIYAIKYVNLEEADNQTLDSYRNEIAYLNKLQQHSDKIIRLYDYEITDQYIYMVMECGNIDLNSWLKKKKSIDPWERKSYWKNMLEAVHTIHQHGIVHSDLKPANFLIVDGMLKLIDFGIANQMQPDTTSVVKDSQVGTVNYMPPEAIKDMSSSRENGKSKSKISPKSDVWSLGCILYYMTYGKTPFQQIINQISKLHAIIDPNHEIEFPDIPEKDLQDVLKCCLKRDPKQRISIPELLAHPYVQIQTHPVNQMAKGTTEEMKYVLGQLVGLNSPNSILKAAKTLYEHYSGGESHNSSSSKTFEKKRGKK

[3] = target: T1, Mps-1 kinase; test: Mps-1 kinase assay with 2 mM ATP (TR-FRET)
[4] = comparison compounds specified in WO2011/063908

SMILES: N#Cc1ccccc1Nc1nc2ccc(-c3ccc(NC(=O)Cc4ccc(F)c(F)c4)cc3)cn2n1 [Example 4, reference compound]
- Hydrolysis at pH 2; Decay in % after 24 h [1, 4]: ≧70%
- IC50 [2]: ≤ 1 nM

SMILES: CCOCCNC(=O)c1ccc(Nc2nc3ccc(-c4ccc(C(=O)NCc5ccc(F)cc5)cc4)cn3n2)c(OC)c1 [Example 02.10, N-(2-ethoxyethyl)-4-[(6-{4-[(4-fluorobenzyl)carbamoyl]phenyl}[1,2,4]-triazolo[1,5-α]pyridin-2-yl)amino]-3-methoxybenzamide]
- Hydrolysis at pH 2; Decay in % after 24 h ([1]; compounds of the invention): <10%
- IC50 [2]: ≤ 1 nM
- IC50 [3]: 2.3 nM

SMILES: CCOc1cc(C(=O)NCCO)ccc1Nc1nc2ccc(-c3ccc(NC(=O)Cc4ccc(F)cc4)cc3)cn2n1 [Example 01.8, 3-ethoxy-4-{[6-(4-{[(4-fluorophenyl)acetyl]amino}phenyl)[1,2,4]triazolo-[1,5-α]pyridin-2-yl]amino}-N-(2-hydroxyethyl)benzamide]
- Hydrolysis at pH 2; Decay in % after 24 h ([1]; compounds of the invention): <10%
- IC50 [2]: ≤ 1 nM
- IC50 [3]: ≤ 1 nM

SMILES: COc1cccc(CC(=O)Nc2ccc(-c3ccc4nc(Nc5ccccc5C#N)nn4c3)cc2)c1 [Example 5, reference compound]
- Hydrolysis at pH 2; Decay in % after 24 h [1, 4]: ≧70%
- IC50 [2]: ≤ 1 nM

SMILES: COc1cc(C(=O)NC(C)(C)CO)ccc1Nc1nc2ccc(-c3ccc(C(=O)NCc4ccc(F)cc4)c(F)c3)cn2n1 [Example 03.1, 2-fluoro-N-(4-fluorobenzyl)-4-[2-({4-[(1-hydroxy-2-methylpropan-2-yl)-carbamoyl]-2-methoxyphenyl}amino)[1,2,4]triazolo[1,5-α]pyridin-6-yl]-benzamide]
- Hydrolysis at pH 2; Decay in % after 24 h ([1]; compounds of the invention): <10%
- IC50 [2]: ≤ 1 nM
- IC50 [3]: 6.9 nM

SMILES: CCOc1cc(C(=O)NC(C)(C)CO)ccc1Nc1nc2ccc(-c3ccc(NC(=O)Cc4ccc(F)cc4)cc3)cn2n1 [Example 01.9, 3-ethoxy-4-{[6-(4-{[(4-fluorophenyl)acetyl]amino}phenyl)[1,2,4]triazolo-[1,5-α]pyridin-2-yl]amino}-N-(1-hydroxy-2-methylpropan-2-yl)benzamide]
- Hydrolysis at pH 2; Decay in % after 24 h ([1]; compounds of the invention): <10%
- IC50 [2]: ≤ 1 nM
- IC50 [3]: ≤ 1 nM

SMILES: COc1cc(C(=O)NCC(C)(C)O)ccc1Nc1nc2ccc(-c3ccc(NC(=O)Cc4ccc(F)cc4)cc3)cn2n1 [Example 01.12, 4-{[6-(4-{[(4-fluorophenyl)acetyl]amino}phenyl)[1,2,4]triazolo[1,5-α]-pyridin-2-yl]amino}-N-(2-hydroxy-2-methylpropyl)-3-methoxybenzamide]
- Hydrolysis at pH 2; Decay in % after 24 h ([1]; compounds of the invention): <10%
- IC50 [2]: ≤ 1 nM
- IC50 [3]: ≤ 1 nM

SMILES: COc1cc(S(C)(=O)=O)ccc1Nc1nc2ccc(-c3ccc(C(=O)NCc4ccc(F)cc4)cc3)cn2n1 [Example 02.6, N-(4-fluorobenzyl)-4-(2-{[2-methoxy-4-(methylsulfonyl)phenyl]amino}-[1,2,4]triazolo[1,5-α]pyridin-6-yl)benzamide]
- Hydrolysis at pH 2; Decay in % after 24 h ([1]; compounds of the invention): <10%
- IC50 [2]: ≤ 1 nM
- IC50 [3]: 4.3 nM

SMILES: CCOc1cc(C(=O)NC(C)(C)CO)ccc1Nc1nc2ccc(-c3ccc(C(=O)NCc4ccc(F)cc4)cc3)cn2n1 [Example 02.3, 3-ethoxy-4-[(6-{4-[(4-fluorobenzyl)carbamoyl]phenyl}[1,2,4]triazolo[1,5-α]pyridin-2-yl)amino]-N-(1-hydroxy-2-methylpropan-2-yl)benzamide]
- Hydrolysis at pH 2; Decay in % after 24 h ([1]; compounds of the invention): <10%
- IC50 [2]: ≤ 1 nM
- IC50 [3]: ≤ 1 nM

SMILES: CCNC(=O)c1ccc(Nc2nc3ccc(-c4ccc(C(=O)NCc5ccc(F)cc5)cc4)cn3n2)c(OC)c1 [Example 02.20, N-ethyl-4-[(6-{4-[(4-fluorobenzyl)carbamoyl]phenyl}[1,2,4]triazolo[1,5-α]-pyridin-2-yl)amino]-3-methoxybenzamide]
- Hydrolysis at pH 2; Decay in % after 24 h ([1]; compounds of the invention): <10%
- IC50 [2]: ≤ 1 nM
- IC50 [3]: 1.7 nM

SMILES: CCNC(=O)c1ccc(Nc2nc3ccc(-c4ccc(C(=O)NCc5cccc(F)c5)cc4)cn3n2)c(OC)c1 [Example 07.1, N-ethyl-4-[(6-{4-[(3-fluorobenzyl)carbamoyl]phenyl}[1,2,4]triazolo[1,5-α]-pyridin-2-yl)amino]-3-methoxybenzamide]
- Hydrolysis at pH 2; Decay in % after 24 h ([1]; compounds of the invention): <10%
- IC50 [2]: ≤ 1 nM
- IC50 [3]: 14 nM

SMILES: CCOc1cc(C(=O)NCCO)ccc1Nc1nc2ccc(-c3ccc(C(=O)NCC4CC4)cc3)cn2n1 [Example 06.3, 4-[(6-{4-[(cyclopropylmethyl)carbamoyl]phenyl}[1,2,4]triazolo[1,5-α]-pyridin-2-yl)amino]-3-ethoxy-N-(2-hydroxyethyl)benzamide]
- Hydrolysis at pH 2; Decay in % after 24 h ([1]; compounds of the invention): <10%
- IC50 [2]: ≤ 1 nM
- IC50 [3]: 21 nM

SMILES: COc1cc(C(=O)NC(C)(C)CO)ccc1Nc1nc2ccc(-c3ccc(C(=O)NCc4ccc(F)cc4)c(Cl)c3)cn2n1 [Example 05.1, 2-chloro-N-(4-fluorobenzyl)-4-[2-({4-[(1-hydroxy-2-methylpropan-2-yl)-carbamoyl]-2-methoxyphenyl}amino)[1,2,4]triazolo[1,5-α]pyridin-6-yl]-benzamide]
- Hydrolysis at pH 2; Decay in % after 24 h ([1]; compounds of the invention): <10%
- IC50 [2]: ≤ 1 nM

SMILES: N#Cc1c(F)cccc1Nc1nc2ccc(-c3ccc(NC(=O)Cc4ccccc4)cc3)cn2n1 [Example 2, reference compound]
- Hydrolysis at pH 2; Decay in % after 24 h [1, 4]: ≧20%
- IC50 [2]: ≤ 1 nM

SMILES: N#Cc1ccccc1Nc1nc2ccc(-c3ccc(NC(=O)Cc4cccc(F)c4)cc3)cn2n1 [Example 7, reference compound]
- Hydrolysis at pH 2; Decay in % after 24 h [1, 4]: ≧70%
- IC50 [2]: 1.1 nM

SMILES: N#Cc1ccccc1Nc1nc2ccc(-c3ccc(NC(=O)Cc4ccccc4F)cc3)cn2n1 [Example 3, reference compound]
- Hydrolysis at pH 2; Decay in % after 24 h [1, 4]: ≧70%
- IC50 [2]: ≤ 1 nM

SMILES: N#Cc1ccccc1Nc1nc2ccc(-c3ccc(NC(=O)Cc4cccc(C(F)(F)F)c4)cc3)cn2n1 [Example 8, reference compound]
- Hydrolysis at pH 2; Decay in % after 24 h [1, 4]: ≧70%
- IC50 [2]: 1.4 nM

SMILES: CCNC(=O)c1ccc(Nc2nc3ccc(-c4ccc(C(=O)NCC5CC5)cc4)cn3n2)c(OCC)c1 [Example 06.1, 4-[(6-{4-[(cyclopropylmethyl)carbamoyl]phenyl}[1,2,4]triazolo[1,5-α]-pyridin-2-yl)amino]-3-ethoxy-N-ethylbenzamide]
- Hydrolysis at pH 2; Decay in % after 24 h ([1]; compounds of the invention): <10%
- IC50 [2]: ≤ 1 nM

SMILES: N#Cc1ccccc1Nc1nc2ccc(-c3ccc(NC(=O)Cc4ccccc4)cc3)cn2n1 [Example 6, reference compound]
- Hydrolysis at pH 2; Decay in % after 24 h [1, 4]: ≧90%

SMILES: N#Cc1ccccc1Nc1nc2ccc(-c3ccc(NC(=O)Cc4ccc(F)cc4)cc3)cn2n1 [Example 1, reference compound]
- Hydrolysis at pH 2; Decay in % after 24 h [1, 4]: ≧90%

SMILES: Cc1ccc(C#N)c(Nc2nc3ccc(-c4ccc(NC(=O)Cc5ccccc5)cc4)cn3n2)c1 [Example 10, reference compound]
- Hydrolysis at pH 2; Decay in % after 24 h [1, 4]: ≧70%
- IC50 [2]: 2.1 nM

SMILES: COc1cc(S(C)(=O)=O)ccc1Nc1nc2ccc(-c3ccc(NC(=O)Cc4ccc(F)cc4)cc3)cn2n1 [Example 01.15, 2-(4-fluorophenyl)-N-[4-(2-{[2-methoxy-4-(methylsulfonyl)phenyl]amino}-[1,2,4]triazolo[1,5-α]pyridin-6-yl)phenyl]acetamide]
- Hydrolysis at pH 2; Decay in % after 24 h ([1]; compounds of the invention): <10%
